Laboratory results reported in patent US20040116480A1, “Oxime ether compound and agricultural or horticultural bactericide” (priority 2001, published 2004).

Test system: kidney bean gray mold fungus (Botrytis cinerea)
Test: Test on kidney bean gray mold control, dipped flowers on detached leaves
Assay type: in vivo
Conditions: 168 h, 50 ppm active ingredient, kidney bean flowers (Nagauzura) dipped, then spore solution sprayed, 20° C., 7 days, lesion diameter, read-out: control efficacy
Description: The following test examples show the efficacy of the compounds of the present invention as active ingredients of various agents for controlling plant diseases. The control efficacy was determined by visual observation of the infested states of test plants, that is, degrees of legions and growth of colonies on leaves and stalks, when they were examined, in comparison with those of control plants.
Test on Kidney Bean Gray Mold Control
Flowers of kidney bean (variety: Nagauzura) grown in a flat vessel for culturing seedlings were cut, and dipped into a solution of an emulsifiable concentrate prepared for a compound of the present invention, diluted to a concentration of 50 ppm based on the active ingredient. After the dipping, the flowers were dried at room temperature. Then a spore solution of kidney bean gray mold fungus (Botrytis cinerea) was sprayed onto the flowers. The treated flowers were placed on leaves detached from healthy kidney bean plants, placed in a temperature-controlled room at 20° C. with high humidity and repeated lighting of 12-hour intervals, and incubated for 7 days. Diameters of the legions on the leaves were measured and compared with those of the control healthy leaves to determine the control efficacy.

Row | Compound | pest or weed control at 50 ppm [%]
1 | COc1nccc(C)c1CO/N=C/c1cc(C)cc(C)n1 [II-3, 4,6-dimethyl-2-pyridinecarboxyaldehyde O-[(2-methoxy-4-methyl-3-pyridinyl)methyl]oxime] | ≥ 75
2 | COc1ccnc(OC)c1CO/N=C(\C)c1cc(C)cc(C)n1 [II-14, 1-(4,6-dimethyl-2-pyridinyl)ethanone O-[(2,4-dimethoxy-3-pyridinyl)methyl]oxime] | ≥ 75
3 | COc1ncnc(OC)c1CO/N=C(\C)c1cc(C)cc(C)n1 [II-17, 1-(4,6-dimethyl-2-pyridinyl)ethanone O-[(4,6-dimethoxy-5-pyrimidinyl)methyl]oxime] | ≥ 75
4 | COc1ncnc(OC)c1CO/N=C/c1cc(Cl)cc(C)n1 [II-20, 4-chloro-6-methyl-2-pyridinecarboxyaldehyde O-[(4,6-dimethoxy-5-pyrimidinyl)methyl]oxime] | ≥ 75
5 | COc1ccnc(OC)c1CO/N=C/c1cc(C#N)cc(C)n1 [II-27, 4-cyano-6-methyl-2-pyridinecarboxyaldehyde O-[(2-,4-dimethoxy-3-pyridinyl)methyl]oxime] | ≥ 75
6 | COc1nccc(C)c1CO/N=C/c1cc(C#N)cc(C)n1 [II-28, 4-cyano-6-methyl-2-pyridinecarboxyaldehyde O-[(2-methoxy-4-methyl-3-pyridinyl)methyl]oxime] | ≥ 75
7 | COc1ncnc(OC)c1CO/N=C/c1cc(C#N)cc(C)n1 [II-29, 4-cyano-6-methyl-2-pyridinecarboxyaldehyde O-[(4,6-dimethoxy-5-pyrimidinyl)methyl]oxime] | ≥ 75
8 | COc1ncnc(OC)c1CO/N=C/c1cc(C(F)(F)F)cc(C)n1 [II-36, 6-methyl-4-trifluoromethyl-2-pyridinecarboxyaldehyde O-[(4,6-dimethoxy-5-pyrimidinyl)methyl]oxime] | ≥ 75
